According to US8802597B2, “Herbicidal pyrimidines” (E I du Pont de Nemours and Company, priority 2003, dated 2014):

Columns and labels:
Format in all cases: in vivo
[1] = test system: morningglory (Ipomoea coccinea); experiment: Test B pre/postemergence
Outline: (§1)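 Visual rating, 0 (no effect) to 100 (complete control) versus controls, taken 13–15 days after treatment in greenhouse. Compounds formulated in non-phytotoxic solvent plus surfactant; pre: sprayed after seeding; post: plants at 1- to 4-leaf stage, 2–18 cm.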

corn (Zea mays) = experiment: Test B pre/postemergence
Outline: as §1

[2] = test system: crabgrass (Digitaria sanguinalis); experiment: Test B pre/postemergence
Outline: as §1

[3] = test system: barnyardgrass (Echinochloa crus-galli); experiment: Test B pre/postemergence
Outline: as §1

[4] = test system: Surinam grass (Brachiaria decumbens); experiment: Test B pre/postemergence
Outline: as §1

[5] = test system: velvetleaf (Abutilon theophrasti); experiment: Test B pre/postemergence
Outline: as §1

[6] = test system: lambsquarters (Chenopodium album); experiment: Test B pre/postemergence
Outline: as §1

[7] = test system: wheat (Triticum aestivum); experiment: Test B pre/postemergence
Outline: as §1

[8] = test system: cocklebur (Xanthium strumarium); experiment: Test B pre/postemergence
Outline: as §1

[9] = test system: pigweed (Amaranthus retroflexus); experiment: Test B pre/postemergence
Outline: as §1

[10] = test system: giant foxtail (Setaria faberii); experiment: Test B pre/postemergence
Outline: as §1

[11] = test system: barnyardgrass (Echinochloa crus-galli); experiment: Test B flooded paddy test; settings: Flood, 1000 g ai/ha; scale 0 (no effect) to 100 (complete control)
Outline: (§2)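 Plants were grown to the 2-leaf stage before treatment, then kept in a greenhouse for 13 to 15 days. Injury was rated visually against untreated controls on a 0 to 100 scale, where 0 is no effect and 100 is complete control.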

rice (Oryza sativa) = experiment: Test B flooded paddy test; settings: Flood, 1000 g ai/ha; scale 0 to 100
Outline: as §2

[12] = test system: duck salad (Heteranthera limosa); experiment: Test B flooded paddy test; settings: Flood, 1000 g ai/ha; scale 0 to 100
Outline: as §2

[13] = test system: umbrella sedge (Cyperus difformis); experiment: Test B flooded paddy test; settings: Flood, 1000 g ai/ha; scale 0 to 100
Outline: as §2

[14] = test system: blackgrass (Alopecurus myosuroides); experiment: Test B postemergence; settings: for Blackgrass plant response rating: 125 g ai/ha, scale 0 to 100 (0 no effect, 100 complete control); for Plant response rating, Blackgrass: 500 g ai/ha, scale 0 to 100
Outline: as §1

wild oat (Avena fatua) = experiment: Test B postemergence; settings: for Oat, Wild plant response rating: 125 g ai/ha, scale 0 to 100 (0 no effect, 100 complete control); for Plant response rating, Oat, Wild: 500 g ai/ha, scale 0 to 100
Outline: as §1

[15] = Postemergence, 125 g ai/ha, scale 0 to 100 (0 no effect, 100 complete control)
[16] = Postemergence, 500 g ai/ha, scale 0 to 100
[17] = Preemergence, 125 g ai/ha, scale 0 to 100 (0 no effect, 100 complete control)
[18] = Preemergence, 500 g ai/ha, scale 0 to 100 (0 no effect, 100 complete control)

SMILES: CNN=Cc1nc(C2CC2)nc(N)c1Br [Compound 49]
- Morningglory plant response rating [1, 15]: 90
- Plant response rating, Morningglory [1, 16]: 100
- Plant response rating, Morningglory [1, 17]: 80
- Morningglory plant response rating [1, 18]: 100
- Corn plant response rating (corn (Zea mays); [15]): 0
- Plant response rating, Corn (corn (Zea mays); [16]): 30
- Plant response rating, Corn (corn (Zea mays); [17]): 10
- Corn plant response rating (corn (Zea mays); [18]): 40
- Crabgrass plant response rating [2, 15]: 30
- Plant response rating, Crabgrass [2, 16]: 80
- Plant response rating, Crabgrass [2, 17]: 80
- Crabgrass plant response rating [2, 18]: 90
- Barnyardgrass plant response rating [3, 15]: 30
- Plant response rating, Barnyardgrass [3, 16]: 70
- Plant response rating, Barnyardgrass [3, 17]: 30
- Barnyardgrass plant response rating [3, 18]: 60
- Surinam Grass plant response rating [4, 15]: 10
- Plant response rating, Surinam Grass [4, 16]: 60
- Plant response rating, Surinam Grass [4, 17]: 40
- Surinam Grass plant response rating [4, 18]: 60
- Velvetleaf plant response rating [5, 15]: 50
- Plant response rating, Velvetleaf [5, 16]: 80
- Plant response rating, Velvetleaf [5, 17]: 80
- Velvetleaf plant response rating [5, 18]: 90
- Lambsquarters plant response rating [6, 15]: 80
- Plant response rating, Lambsquarters [6, 16]: 90
- Plant response rating, Lambsquarters [6, 17]: 90
- Lambsquarters plant response rating [6, 18]: 100
- Wheat plant response rating [7, 15]: 30
- Plant response rating, Wheat [7, 16]: 40
- Plant response rating, Wheat [7, 17]: 30
- Plant response rating, Wheat [7, 18]: 70
- Cocklebur plant response rating [8, 15]: 90
- Plant response rating, Cocklebur [8, 16]: 100
- Plant response rating, Cocklebur [8, 17]: 80
- Cocklebur plant response rating [8, 18]: 90
- Pigweed plant response rating [9, 15]: 90
- Plant response rating, Pigweed [9, 16]: 90
- Plant response rating, Pigweed [9, 17]: 90
- Pigweed plant response rating [9, 18]: 100
- Foxtail, Giant plant response rating [10, 15]: 10
- Plant response rating, Foxtail, Giant [10, 16]: 70
- Plant response rating, Foxtail, Giant [10, 17]: 40
- Foxtail, Giant plant response rating [10, 18]: 70
- Plant response rating, Barnyardgrass [11]: 50
- Plant response rating, Rice (rice (Oryza sativa)): 30
- Plant response rating, Ducksalad [12]: 60
- Plant response rating, Sedge, Umbrella [13]: 70
- Blackgrass plant response rating [14]: 20
- Plant response rating, Blackgrass [14]: 50
- Oat, Wild plant response rating (wild oat (Avena fatua)): 30
- Plant response rating, Oat, Wild (wild oat (Avena fatua)): 60

SMILES: CN(C)N=Cc1nc(C2CC2)nc(N)c1Br [Compound 50]
- Morningglory plant response rating [1, 15]: 90
- Plant response rating, Morningglory [1, 16]: 90
- Plant response rating, Morningglory [1, 17]: 80
- Plant response rating, Morningglory [1, 18]: 90
- Corn plant response rating (corn (Zea mays); [15]): 0
- Plant response rating, Corn (corn (Zea mays); [16]): 40
- Plant response rating, Corn (corn (Zea mays); [17]): 20
- Plant response rating, Corn (corn (Zea mays); [18]): 20
- Crabgrass plant response rating [2, 15]: 40
- Plant response rating, Crabgrass [2, 16]: 80
- Plant response rating, Crabgrass [2, 17]: 50
- Plant response rating, Crabgrass [2, 18]: 80
- Barnyardgrass plant response rating [3, 15]: 10
- Plant response rating, Barnyardgrass [3, 16]: 50
- Plant response rating, Barnyardgrass [3, 17]: 30
- Plant response rating, Barnyardgrass [3, 18]: 50
- Surinam Grass plant response rating [4, 15]: 20
- Plant response rating, Surinam Grass [4, 16]: 60
- Plant response rating, Surinam Grass [4, 17]: 20
- Plant response rating, Surinam Grass [4, 18]: 70
- Velvetleaf plant response rating [5, 15]: 70
- Plant response rating, Velvetleaf [5, 16]: 90
- Plant response rating, Velvetleaf [5, 17]: 80
- Plant response rating, Velvetleaf [5, 18]: 90
- Lambsquarters plant response rating [6, 15]: 80
- Plant response rating, Lambsquarters [6, 16]: 90
- Plant response rating, Lambsquarters [6, 17]: 90
- Plant response rating, Lambsquarters [6, 18]: 100
- Wheat plant response rating [7, 15]: 30
- Plant response rating, Wheat [7, 16]: 60
- Plant response rating, Wheat [7, 17]: 20
- Plant response rating, Wheat [7, 18]: 40
- Cocklebur plant response rating [8, 15]: 90
- Plant response rating, Cocklebur [8, 16]: 90
- Plant response rating, Cocklebur [8, 17]: 80
- Plant response rating, Cocklebur [8, 18]: 90
- Pigweed plant response rating [9, 15]: 80
- Plant response rating, Pigweed [9, 16]: 90
- Plant response rating, Pigweed [9, 17]: 70
- Plant response rating, Pigweed [9, 18]: 90
- Foxtail, Giant plant response rating [10, 15]: 20
- Plant response rating, Foxtail, Giant [10, 16]: 70
- Plant response rating, Foxtail, Giant [10, 17]: 10
- Plant response rating, Foxtail, Giant [10, 18]: 40
- Plant response rating, Barnyardgrass [11]: 30
- Plant response rating, Rice (rice (Oryza sativa)): 30
- Plant response rating, Ducksalad [12]: 40
- Plant response rating, Sedge, Umbrella [13]: 0
- Blackgrass plant response rating [14]: 30
- Plant response rating, Blackgrass [14]: 50
- Oat, Wild plant response rating (wild oat (Avena fatua)): 30
- Plant response rating, Oat, Wild (wild oat (Avena fatua)): 60
